Like-named read-outs stand apart in the source and are kept apart here.

The test addresses T1, Rhesus PDE2A3 (Macaca mulatta, UniProt B3VTJ2).
T1 construct: made in house; host or cells: AD293 cells, transient transfection; supernatant of sonicated lysate
T1 sequence (B3VTJ2 1-941): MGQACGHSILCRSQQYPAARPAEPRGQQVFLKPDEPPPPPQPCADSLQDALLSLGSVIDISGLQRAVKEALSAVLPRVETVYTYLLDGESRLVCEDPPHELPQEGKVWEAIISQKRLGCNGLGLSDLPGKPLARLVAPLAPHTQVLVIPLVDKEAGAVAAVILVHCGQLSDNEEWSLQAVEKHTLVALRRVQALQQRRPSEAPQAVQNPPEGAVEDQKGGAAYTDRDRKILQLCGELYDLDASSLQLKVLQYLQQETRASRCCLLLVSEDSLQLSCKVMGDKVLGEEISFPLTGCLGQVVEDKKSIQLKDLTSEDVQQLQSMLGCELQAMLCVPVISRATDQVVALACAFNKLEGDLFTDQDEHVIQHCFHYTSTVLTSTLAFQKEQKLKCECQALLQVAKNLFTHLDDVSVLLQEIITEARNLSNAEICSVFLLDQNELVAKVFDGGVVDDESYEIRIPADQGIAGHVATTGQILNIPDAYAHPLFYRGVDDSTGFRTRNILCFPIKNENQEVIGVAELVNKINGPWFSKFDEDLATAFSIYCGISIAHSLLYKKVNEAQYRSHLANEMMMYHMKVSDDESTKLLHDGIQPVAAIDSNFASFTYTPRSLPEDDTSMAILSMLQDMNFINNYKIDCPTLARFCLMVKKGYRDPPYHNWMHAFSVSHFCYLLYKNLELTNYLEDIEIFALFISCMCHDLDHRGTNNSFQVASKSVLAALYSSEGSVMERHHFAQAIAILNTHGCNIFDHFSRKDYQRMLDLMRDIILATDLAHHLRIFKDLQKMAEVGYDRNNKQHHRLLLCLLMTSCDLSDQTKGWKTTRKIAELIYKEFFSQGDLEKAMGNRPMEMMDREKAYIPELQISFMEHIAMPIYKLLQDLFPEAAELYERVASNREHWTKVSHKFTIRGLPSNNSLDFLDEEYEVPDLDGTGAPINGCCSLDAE
In words: PDE2 fluorescence polarization (IMAP FP) inhibition assay, rhesus PDE2A3. The class given is biochemical, rhesus macaque. Summed up:
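Enzyme source was the lysate supernatant of AD293 cells transiently expressing rhesus PDE2A3, diluted to give 20% conversion of 50 nM FAM-cAMP, with 1 µM cGMP as activator. Buffer was 10 mM Tris pH 7.2, 10 mM MgCl2, 1 mM DTT.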

[1] abbreviates: Lab A, read-out: Rhesus PDE2 Ki (nM) Lab A.
[2] abbreviates: Lab B, read-out: Rhesus PDE2 Ki (nM) Lab B.

For the molecule `COc1cccc(-c2nc3c(c(C)nn3C(C)c3ccc(C(F)(F)F)cc3)c(=O)[nH]2)c1` (centres unmarked) [Example 47, 6-(3-Methoxyphenyl)-3-methyl-1-{1-[4-(trifluoromethyl)phenyl]ethyl}-1,5-dihydro-4H-pyrazolo[3,4-d]pyrimidin-4-one], under setting [1], the Ki came to 18 nM.
Same read-out and setting: in the case of `Cc1nc2c(c(C(C)(C)O)nn2C(C)c2ccc(C(F)(F)F)cc2)c(=O)[nH]1` (centres unmarked) [Example 326, 3-(1-Hydroxy-1-methylethyl)-6-methyl-1-{1-[4-(trifluoromethyl)phenyl]ethyl}-1,5-dihydro-4H-pyrazolo[3,4-d]pyrimidin-4-one] it was 134 nM.
As for `Cc1nc2c(c(CO)nn2C(c2ccc(C(F)(F)F)cc2)C(F)(F)F)c(=O)[nH]1` (centres unmarked) [Example 6, 3-(Hydroxymethyl)-6-methyl-1-(2,2,2-trifluoro-1-(4-(trifluoromethyl)phenyl)ethyl)-1H-pyrazolo[3,4-d]pyrimidin-4(5H)-one], the Ki under setting [1] was 1.6 nM and the inhibition constant (Ki) under setting [2] amounted to 3.5 nM.
`Cc1nc2c(c(CF)nn2C(c2ccc(C(F)(F)F)cc2)C(C)C)c(=O)[nH]1` (single isomer, unassigned) [Example 212, (R)- or (S)-3-(Fluoromethyl)-6-methyl-1-(2-methyl-1-(4-(trifluoromethyl)phenyl)propyl)-1H-pyrazolo[3,4-d]pyrimidin-4(5H)-one]: the inhibitory constant (Ki) under setting [2] came out at 54 nM.
With `Cc1nc2c(c(CO)nn2C(C)c2ccc(C(F)(F)F)cc2)c(=O)[nH]1` (single isomer, unassigned) [Example 26, (R)- or (S)-3-(Hydroxymethyl)-6-methyl-1-{1-[4-(trifluoromethyl)phenyl]ethyl}-1,5-dihydro-4H-pyrazolo[3,4-d]pyrimidin-4-one], the Ki runs as follows: under setting [1], 216 nM; under setting [2], 456 nM.
As to `Cc1nc2c(c(CO)nn2C(c2ccc(OC(F)(F)F)c(F)c2)C(C)C)c(=O)[nH]1` (single isomer, unassigned) [Example 127, (S)- or (R)-1-(1-(3-Fluoro-4-(trifluoromethoxy)phenyl)-2-methylpropyl)-3-(hydroxymethyl)-6-methyl-1H-pyrazolo[3,4-d]pyrimidin-4(5H)-one], under setting [2], the inhibition constant (Ki) came out at 0.9 nM.
For `Cc1nc2c(c(CO)nn2C(C)c2ccc(C3CC3)cc2)c(=O)[nH]1` (centres unmarked) [Example 3, 1-(1-(4-Cyclopropylphenl)ethyl)-3-(hydroxymethyl)-6-methyl-1H-pyrazolo[3,4-d]pyrimidin-4(5H)-one], the Ki came to 1.8 nM under setting [1] and 5.6 nM under setting [2].
On to `Cc1nc2c(c(CF)nn2C(C)c2ccc(OC(F)(F)F)cc2)c(=O)[nH]1` (single isomer, unassigned) [Example 207, (S)- or (R)-3-(Fluoromethyl)-6-methyl-1-(1-(4-(trifluoromethoxy)phenyl)ethyl)-1H-pyrazolo[3,4-d]pyrimidin-4(5H)-one], for which the Ki came to 0.46 nM under setting [1] and 0.84 nM under setting [2].
Turning to `COc1ccc(Cc2nc3c(c(C)nn3C(C)c3ccc(C(F)(F)F)cc3)c(=O)[nH]2)cc1OC` (centres unmarked) [Example 44, 6-(3,4-Dimethoxybenzyl)-3-methyl-1-{1-[4-(trifluoromethyl)phenyl]ethyl}-1,5-dihydro-4H-pyrazolo[3,4-d]pyrimidin-4-one], the Ki under setting [1] is 4.8 nM.
On the same count and under the same terms, the same measure for `Cc1nn(C(C)c2ccc(C(F)(F)F)cc2)c2nc(-c3ccccn3)[nH]c(=O)c12` (centres unmarked) [Example 52, 3-Methyl-6-pyridin-2-yl-1-{1-[4-(trifluoromethyl)phenyl]ethyl}-1,5-dihydro-4H-pyrazolo[3,4-d]pyrimidin-4-one]: 28 nM.
In the case of `Cc1nc2c(c(C(F)F)nn2C(C)c2ccc(OC(F)F)cc2)c(=O)[nH]1` (single isomer, unassigned) [Example 182, (S)- or (R)-1-(1-(4-(Difluoromethoxy)phenyl)ethyl)-3-(difluoromethyl)-6-methyl-1H-pyrazolo[3,4-d]pyrimidin-4(5H)-one], under setting [2], the inhibition constant Ki was 1.2 nM.
Consider `COc1ccc(C(=O)c2nc3c(c(C(F)F)nn3C(C)c3ccc(C(F)(F)F)cc3)c(=O)[nH]2)cc1OC` (centres unmarked) [Example 198, 3-(Difluoromethyl)-6-(3,4-dimethoxybenzoyl)-1-(1-(4-(trifluoromethyl)phenyl)ethyl)-1H-pyrazolo[3,4-d]pyrimidin-4(5H)-one], for which the Ki under setting [2] was 17 nM.
`Cc1nc2c(c(CO)nn2C(C)c2ccc(C(F)(F)F)c(F)c2)c(=O)[nH]1` (single isomer, unassigned) [Example 12, (R)- or (S)-1-(1-(3-Fluoro-4-(trifluoromethyl)phenyl)ethyl)-3-(hydroxymethyl)-6-methyl-1H-pyrazolo[3,4-d]pyrimidin-4(5H)-one]: the inhibition constant Ki reads like this: under setting [1], 278 nM; under setting [2], 514 nM.
The like results for `Cc1nn(C(C)c2ccc(C(F)(F)F)cc2)c2nc(Cc3ccccc3O)[nH]c(=O)c12` (centres unmarked) [Example 31, 6-(2-Hydroxybenzyl)-3-methyl-1-(1-(4-(trifluoromethyl)phenyl)ethyl)-1H-pyrazolo[3,4-d]pyrimidin-4(5H)-one] were, in that order, 65 nM and 128 nM.
In the case of `Cc1nc2c(c(CF)nn2C(c2ccc(C(F)(F)F)cc2)C2CC2)c(=O)[nH]1` (centres unmarked) [Example 231, 1-(cyclopropyl(4-(trifluoromethyl)phenyl)methyl)-3-(fluoromethyl)-6-methyl-1H-pyrazolo[3,4-d]pyrimidin-4(5H)-one], the Ki is 0.87 nM under setting [1] and 1.2 nM under setting [2].
Regarding `Cc1nn(C(C)c2ccc(C(F)(F)F)cc2)c2nc(C3CC3)[nH]c(=O)c12` (centres unmarked) [Example 42, 6-Cyclopropyl-3-methyl-1-{1-[4-(trifluoromethyl)phenyl]ethyl}-1,5-dihydro-4H-pyrazolo[3,4-d]pyrimidin-4-one], the Ki under setting [1] is 58 nM.
As to `Cc1nn(C(C)c2ccc(C(F)(F)F)cc2)c2nc(C(C)C)[nH]c(=O)c12` (centres unmarked) [Example 43, 3-Methyl-6-(1-methylethyl)-1-{1-[4-(trifluoromethyl)phenyl]ethyl}-1,5-dihydro-4H-pyrazolo[3,4-d]pyrimidin-4-one], under setting [1], the Ki was 257 nM.
The same measure, in the same setting: the same measure for `Cc1nn(C(C)c2ccc(C(F)(F)F)cc2)c2nc(C3CCCC3)[nH]c(=O)c12` (centres unmarked) [Example 40, 6-Cyclopentyl-3-methyl-1-{1-[4-(trifluoromethyl)phenyl]ethyl}-1,5-dihydro-4H-pyrazolo[3,4-d]pyrimidin-4-one]: 340 nM.
Regarding `CCOCCc1nc2c(c(C)nn2C(C)c2ccc(C(F)(F)F)cc2)c(=O)[nH]1` (centres unmarked) [Example 35, 6-(2-Ethoxyethyl)-3-methyl-1-(1-(4-(trifluoromethyl)phenyl)ethyl)-1H-pyrazolo[3,4-d]pyrimidin-4(5H)-one], under setting [1], the Ki came out at 164 nM.
On to `Cc1nc2c(c(CO)nn2C(c2ccc(OC(F)(F)F)c(F)c2)C(C)C)c(=O)[nH]1` (single isomer, unassigned) [Example 126, (R)- or (S)-1-(1-(3-Fluoro-4-(trifluoromethoxy)phenyl)-2-methylpropyl)-3-(hydroxyl-methyl)-6-methyl-1H-pyrazolo-[3,4-d]pyrimidin-4(5H)-one], for which the Ki under setting [2] was 6 nM.
Turning to `CCCc1nc2c(c(C)nn2C(C)c2ccc(C(F)(F)F)cc2)c(=O)[nH]1` (centres unmarked) [Example 41, 3-Methyl-6-propyl-1-{1-[4-(trifluoromethyl)phenyl]ethyl}-1,5-dihydro-4H-pyrazolo[3,4-d]pyrimidin-4-one], the Ki under setting [1] is 64 nM.
Regarding `Cc1nc2c(c(CO)nn2[C@H](c2ccc(C(C)(C)C)cc2)C(C)C)c(=O)[nH]1` [Example 159, (S)-1-(1-(4-tert-Butylphenyl)-2-methylpropyl)-3-(hydroxymethyl)-6-methyl-1H-pyrazolo[3,4-d]pyrimidin-4(5H)-one], the inhibition constant Ki under setting [2] is 2.8 nM.

Source of the values: patent US10160762B2, “6-alkyl dihydropyrazolopyrimidinone compounds as PDE2 inhibitors” (Merck Sharp & Dohme Corp., priority 2015, dated 2018).
